Test results from ChEMBL document CHEMBL5113454, “Design, synthesis, and bioactivity study on Lissodendrins B derivatives as PARP1 inhibitor” (Bioorg Med Chem, 2022).
Active and inactive are the calls of the source. The rule behind the calls is not given here.

What was measured:
[1] = test system: MDA-MB-436; experiment: Induction of apoptosis in BRCA1-deficient human MDA-MB-436 cells at 0.1 to 15 uM measured after 24 hrs by Annexin V/propidium iodide (PI) based FACS analysis; type: functional, cell-based; conditions: dose 0.1-15 µM
[2] = test system: HCC1937; experiment: Induction of apoptosis in BRCA1-deficient human HCC1937 cells at 0.1 to 15 uM measured after 24 hrs by Annexin V/propidium iodide (PI) based FACS analysis; type: functional, cell-based; conditions: dose 0.1-15 µM
[3] = test system: HCC1937; experiment: Cell cycle arrest in BRCA1-deficient human HCC1937 cells assessed as accumulation at G1 phase at 1 uM measured after 24 hrs by propidium iodide (PI) based FACS analysis (reference value: 31.6%); type: functional
[4] = test system: HCC1937; experiment: Cell cycle arrest in BRCA1-deficient human HCC1937 cells assessed as accumulation at G2 phase at 5 uM measured after 24 hrs by propidium iodide (PI) based FACS analysis (reference value: 13.5%); type: functional
[5] = test system: MCF7; experiment: Induction of DNA damage in human MCF7 cells expressing BRCA1 at 0.1 to 15 uM assessed as increase in accumulation of DNA double-strand breaks measuring gamma-H2AX levels by Western blot analysis; type: functional, cell-based; conditions: dose 0.1-15 µM
[6] = test system: HCC1937; experiment: Cell cycle arrest in BRCA1-deficient human HCC1937 cells assessed as accumulation at S phase at 15 uM measured after 24 hrs by propidium iodide (PI) based FACS analysis (reference value: 26%); type: functional
[7] = test system: MDA-MB-436; experiment: Cell cycle arrest in BRCA1-deficient human MDA-MB-436 cells assessed as accumulation at G1 phase at 15 uM measured after 24 hrs by propidium iodide (PI) based FACS analysis (reference value: 26.7%); type: functional
[8] = test system: HCC1937; experiment: Cell cycle arrest in BRCA1-deficient human HCC1937 cells assessed as accumulation at S phase at 0.1 uM measured after 24 hrs by propidium iodide (PI) based FACS analysis (reference value: 26%); type: functional
[9] = test system: HCC1937; experiment: Antiproliferative activity against human HCC1937 cells after 7 days by resazurin reduction assay; conditions: HCC1937, 168 h
[10] = test system: MDA-MB-436; experiment: Cell cycle arrest in BRCA1-deficient human MDA-MB-436 cells assessed as accumulation at G1 phase at 0.1 uM measured after 24 hrs by propidium iodide (PI) based FACS analysis (reference value: 26.7%); type: functional
[11] = test system: MDA-MB-436; experiment: Cell cycle arrest in BRCA1-deficient human MDA-MB-436 cells assessed as accumulation at G2 phase at 0.1 uM measured after 24 hrs by propidium iodide (PI) based FACS analysis (reference value: 17.6%); type: functional
[12] = test system: MDA-MB-436; experiment: Cell cycle arrest in BRCA1-deficient human MDA-MB-436 cells assessed as accumulation at S phase at 5 uM measured after 24 hrs by propidium iodide (PI) based FACS analysis (reference value: 27.4%); type: functional
[13] = test system: MDA-MB-436; experiment: Cell cycle arrest in BRCA1-deficient human MDA-MB-436 cells assessed as accumulation at G1 phase at 1 uM measured after 24 hrs by propidium iodide (PI) based FACS analysis (reference value: 26.7%); type: functional
[14] = test system: HCC1937; experiment: Cell cycle arrest in BRCA1-deficient human HCC1937 cells assessed as accumulation at G1 phase at 15 uM measured after 24 hrs by propidium iodide (PI) based FACS analysis (reference value: 31.6%); type: functional
[15] = test system: MDA-MB-436; experiment: Cell cycle arrest in BRCA1-deficient human MDA-MB-436 cells assessed as accumulation at S phase at 1 uM measured after 24 hrs by propidium iodide (PI) based FACS analysis (reference value: 27.4%); type: functional
[16] = test system: HCC1937; experiment: Cell cycle arrest in BRCA1-deficient human HCC1937 cells assessed as accumulation at G2 phase at 0.1 uM measured after 24 hrs by propidium iodide (PI) based FACS analysis (reference value: 13.5%); type: functional
[17] = test system: HCC1937; experiment: Cell cycle arrest in BRCA1-deficient human HCC1937 cells assessed as accumulation at G1 phase at 5 uM measured after 24 hrs by propidium iodide (PI) based FACS analysis (reference value: 31.6%); type: functional
[18] = test system: HCC1937; experiment: Cell cycle arrest in BRCA1-deficient human HCC1937 cells assessed as accumulation at S phase at 5 uM measured after 24 hrs by propidium iodide (PI) based FACS analysis (reference value: 26%); type: functional
[19] = test system: MDA-MB-436; experiment: Cell cycle arrest in BRCA1-deficient human MDA-MB-436 cells assessed as accumulation at S phase at 0.1 uM measured after 24 hrs by propidium iodide (PI) based FACS analysis (reference value: 27.4%); type: functional
[20] = test system: HCC1937; experiment: Cell cycle arrest in BRCA1-deficient human HCC1937 cells assessed as accumulation at G1 phase at 0.1 uM measured after 24 hrs by propidium iodide (PI) based FACS analysis (reference value: 31.6%); type: functional
[21] = test system: HCC1937; experiment: Cell cycle arrest in BRCA1-deficient human HCC1937 cells assessed as accumulation at G2 phase at 1 uM measured after 24 hrs by propidium iodide (PI) based FACS analysis (reference value: 13.5%); type: functional
[22] = test system: HCC1937; experiment: Cell cycle arrest in BRCA1-deficient human HCC1937 cells assessed as accumulation at G2 phase at 15 uM measured after 24 hrs by propidium iodide (PI) based FACS analysis (reference value: 13.5%); type: functional
[23] = test system: MDA-MB-436; experiment: Cell cycle arrest in BRCA1-deficient human MDA-MB-436 cells assessed as accumulation at G2 phase at 5 uM measured after 24 hrs by propidium iodide (PI) based FACS analysis (reference value: 17.6%); type: functional
[24] = test system: MDA-MB-436; experiment: Antiproliferative activity against human MDA-MB-436 cells after 7 days by resazurin reduction assay; conditions: MDA-MB-436, 168 h
[25] = test system: MDA-MB-436; experiment: Cell cycle arrest in BRCA1-deficient human MDA-MB-436 cells assessed as accumulation at G2 phase at 1 uM measured after 24 hrs by propidium iodide (PI) based FACS analysis (reference value: 17.6%); type: functional
[26] = test system: MDA-MB-436; experiment: Cell cycle arrest in BRCA1-deficient human MDA-MB-436 cells assessed as accumulation at S phase at 15 uM measured after 24 hrs by propidium iodide (PI) based FACS analysis (reference value: 27.4%); type: functional
[27] = test system: MDA-MB-436; experiment: Cell cycle arrest in BRCA1-deficient human MDA-MB-436 cells assessed as accumulation at G1 phase at 5 uM measured after 24 hrs by propidium iodide (PI) based FACS analysis (reference value: 26.7%); type: functional
[28] = test system: MDA-MB-436; experiment: Cell cycle arrest in BRCA1-deficient human MDA-MB-436 cells assessed as accumulation at G2 phase at 15 uM measured after 24 hrs by propidium iodide (PI) based FACS analysis (reference value: 17.6%); type: functional
[29] = test system: MDA-MB-436; experiment: Induction of DNA damage in BRCA1-deficient human MDA-MB-436 cells at 0.1 to 15 uM assessed as increase in accumulation of DNA double-strand breaks measuring gamma-H2AX levels by Western blot analysis; type: functional, cell-based; conditions: dose 0.1-15 µM
[30] = test system: HCC1937; experiment: Cell cycle arrest in BRCA1-deficient human HCC1937 cells assessed as accumulation at S phase at 1 uM measured after 24 hrs by propidium iodide (PI) based FACS analysis (reference value: 26%); type: functional

With COc1ccc(C(=O)C(=O)c2c(-c3ccc(OC)cc3)nc(NC(=O)CN3CCc4cc(OC)c(OC)cc4C3)n2C)cc1 the Activity [1] was “Active”, the Activity [2] was “Active” and the Activity [3] was 32.8%. The Activity [4] was 22.4%, the Activity [5] was “Active” and the Activity [6] was 17.8%. It also gave an Activity [7] of 9.85%, an Activity [8] of 19.9% and an IC50 [9] of 17.8 µM. For the same molecule, the Activity [10] was 23.3%, the Activity [11] was 17% and the Activity [12] was 29.1%. It also gave an Activity [13] of 25.1%, an Activity [14] of 7% and an Activity [15] of 21.5%. For the same molecule, the Activity [16] was 18.3%, the Activity [17] was 24.7% and the Activity [18] was 23.2%. The Activity [19] was 30.2%, the Activity [20] was 36.6% and the Activity [21] was 21.6%. The Activity [22] was 45.9%, the Activity [23] was 32.8% and the IC50 [24] was 12.6 µM. The Activity [25] was 25.4%, the Activity [26] was 33.3% and the Activity [27] was 10.4%. The Activity [28] was 28.5%, the Activity [29] was “Active” and the Activity [30] was 18.7%.
